Measured values as given in patent publication US20230242473A1, “THYROMIMETICS” (Autobahn Therapeutics, Inc., priority 2020, published 2023).

What was measured:
TRα = molecular target: T1, TRα (Homo sapiens, UniProt P10827); assay: Thyroid-hormone reporter-gene assay, TRα (Gal4 hybrid, luciferase); format: cell-based; conditions: HEK293-derived reporter cells, 24 hr treatment, luciferase readout
T1 construct: expressed in transfected cells; host or cells: HEK293-derived reporter cell line
T1 sequence (P10827 128-410 isoform P10827-2 limits assumed): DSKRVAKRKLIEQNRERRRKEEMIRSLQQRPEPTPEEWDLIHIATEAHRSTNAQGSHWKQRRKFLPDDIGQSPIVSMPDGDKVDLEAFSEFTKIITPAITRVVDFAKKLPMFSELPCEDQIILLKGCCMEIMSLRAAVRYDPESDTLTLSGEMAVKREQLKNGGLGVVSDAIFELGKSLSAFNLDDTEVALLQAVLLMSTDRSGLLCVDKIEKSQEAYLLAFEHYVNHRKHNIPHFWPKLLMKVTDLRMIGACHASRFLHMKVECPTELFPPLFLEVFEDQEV
Description: (§1) Compounds were tested for thyroid-hormone receptor activity using TR reporter-gene assays. Reporter cells used in the assays express a TR-receptor hybrid (either TRα or TRO) in which the native N-terminal DNA binding domain (DBD) has been replaced with that of the yeast Gal4 DBD. The reporter gene, firefly luciferase, is functionally linked to the Gal4 upstream activation sequence (UAS). Both cell lines were derived from human embryonic kidney (HEK293).
(§2) Step 1: A suspension of reporter cells was prepared in cell recovery medium containing 10% charcoal-stripped FBS, and dispensed into assay plates. The plates were pre-incubated for 6 hours in a cell culture incubator (37° C./5% CO2/85% humidity).
(§3) These intermediate stocks were subsequently diluted directly into compound screening medium containing 10% charcoal-stripped FBS to generate “2×-concentration” treatment media (containing 0.2, 0.4 or 0.8% DMSO).
(§4) Step 3: At the end of the pre-incubation period, culture media were discarded from the assay plates, and all wells received 100 μl of compound screening medium. 100 μl of each of the previously prepared “2×-concentration” treatment media were dispensed into duplicate assay wells, thereby achieving the desired final treatment concentrations. The final concentration of DMSO in all assay wells was 0.1, 0.2 or 0.4%. Assay plates were incubated for 24 hr in a cell culture incubator (37° C./5% CO2/85% humidity).
(§5) Step 4: At the 24 h assay endpoint, treatment media were discarded and 100 µl/well of luciferase detection reagent was added. Relative luminometer units (RLUs) were quantified from each assay well.

TRβ = molecular target: T2, TRβ (Homo sapiens, UniProt P10828); assay: Thyroid-hormone reporter-gene assay, TRβ (Gal4 hybrid, luciferase); format: cell-based; conditions: for EC50: HEK293-derived reporter cells, 24 hr treatment, luciferase readout; for T3-SI, selectivity index (SI) calculated as EC50 (TRα)/EC50 (TRβ): TRα vs TRβ reporter-gene assays
T2 construct: expressed in transfected cells; host or cells: HEK293-derived reporter cell line
T2 sequence (P10828 217-461 limits assumed): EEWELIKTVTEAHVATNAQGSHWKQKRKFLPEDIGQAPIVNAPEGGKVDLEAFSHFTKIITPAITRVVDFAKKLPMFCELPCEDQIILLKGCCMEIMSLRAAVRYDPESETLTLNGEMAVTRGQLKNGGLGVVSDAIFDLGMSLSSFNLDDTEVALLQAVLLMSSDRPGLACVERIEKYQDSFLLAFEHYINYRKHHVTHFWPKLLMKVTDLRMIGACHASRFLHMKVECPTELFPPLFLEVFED
Description: as §1, §2, §3, §4, §5

[1] = molecular target: T3, recombinant human FAAH (rhFAAH) (Homo sapiens, UniProt O00519); assay: FAAH substrate evaluation (formation of acid metabolite, LC-MS/MS); format: in vitro ADME; conditions: 0.5 ng/μL rhFAAH, 1 μM test compound, pH 8.0, room temperature, 0-60 minutes
T3 construct: purchased Cayman Chemical (Ann Arbor, Mich., USA)
T3 sequence (O00519 1-579): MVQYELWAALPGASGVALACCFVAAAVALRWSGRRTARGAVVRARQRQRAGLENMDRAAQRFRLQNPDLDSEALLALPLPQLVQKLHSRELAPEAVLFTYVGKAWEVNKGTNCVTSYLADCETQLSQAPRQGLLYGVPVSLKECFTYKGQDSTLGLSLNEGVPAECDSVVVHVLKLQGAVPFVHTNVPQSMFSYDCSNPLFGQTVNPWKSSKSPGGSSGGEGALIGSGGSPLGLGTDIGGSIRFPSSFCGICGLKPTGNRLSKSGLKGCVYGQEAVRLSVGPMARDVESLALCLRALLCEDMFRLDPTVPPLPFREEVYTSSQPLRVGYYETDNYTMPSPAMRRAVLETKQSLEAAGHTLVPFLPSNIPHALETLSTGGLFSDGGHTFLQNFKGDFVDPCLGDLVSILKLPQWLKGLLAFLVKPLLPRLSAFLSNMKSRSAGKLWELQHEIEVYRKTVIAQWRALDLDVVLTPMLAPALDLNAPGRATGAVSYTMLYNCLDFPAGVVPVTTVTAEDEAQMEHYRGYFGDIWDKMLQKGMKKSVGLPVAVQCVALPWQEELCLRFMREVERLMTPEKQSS
Description: Purified recombinant human FAAH (rhFAAH) was purchased from Cayman Chemical (Ann Arbor, Mich., USA). The total volume for each incubation was 400 μL containing a final 0.5 ng/μL rhFAAH, 1 μM test compound, 1.25% ethanol or 1 μM PF-3845 (FAAH inhibitor), and 0.1% bovine serum albumin in Tris-EDTA buffer at pH 8.0). The positive control was LL-341001. The incubation was conducted at the room temperature. At 0, 5, 15, 30 and 60 minutes, an aliquot of 30 μL reaction mixtures was removed and mixed with 300 μL acetonitrile containing 5 ng/mL terfenadine and 10 ng/mL tolbutamide as internal standards to quench the reaction. The resulting mixture was centrifuged at 4000 rpm, 4° C. for 15 minutes, and 100 μL supernatant was ready for LC-MS/MS analysis to measure the formation of acid metabolite.
Acquity Ultra Performance LC system from Waters was used for sample analysis. The chromatography was performed on a reverse phase Kinetex 2.6 μm C18 column, 2.1×30 mm, 100 Å. The mobile phase A comprised of 0.10% formic acid in water and mobile phase B comprised of 0.1% formic acid in acetonitrile with a 2-min run time at the flow rate of 0.8 mL/min for the acid metabolite from positive control or a 1.5 min run time at the flow rate of 0.9 mL/min for the acid metabolite of test compounds. The mass spectrometer (API-5500 and API Q Trap 4000 Applied Biosystems/MDS SCIEX Instruments, Framingham, Mass., USA) was operated under ESI positive or negative ion MRM mode.
The formation of acid metabolite was monitored and quantified using one calibration point of 1 μM. The observed rate constant (ke) for the acid metabolite formation was calculated by plotting the metabolite concentration versus time of incubation with the slope being ke and is shown in Table 4.

Row | Structure (SMILES) | EC50 (TRα) [nM] | EC50 (TRβ) [nM] | T3-SI, selectivity index (SI) calculated as EC50 (TRα)/EC50 (TRβ) (TRβ) | ke, observed rate constant for the acid metabolite formation [1]
1 | CC(C)c1c(O)ccc(Cc2ccc(OCC(=O)O)c3c2CCC3)c1F [Compound 2, 2-((7-(2-fluoro-4-hydroxy-3-isopropylbenzyl)-2,3-dihydro-1H-inden-4-yl)oxy)acetic acid] | > 1000 | 100 to 1000 | ++ (++3X<T3−SI≤30X) | –
2 | CC(C)c1c(O)ccc(Cc2ccc(OCC(=O)O)c3c2C(C)CC3)c1F (centres unmarked) [Compound 4, 2-((7-(2-fluoro-4-hydroxy-3-isopropylbenzyl)-1-methyl-2,3-dihydro-1H-inden-4-yl)oxy)acetic acid] | > 1000 | > 1000 | – | –
3 | Cc1cc(OCC(=O)O)c2c(c1Cc1ccc(O)c(C(C)C)c1)CCC2 [Compound 6, 2-((7-(4-hydroxy-3-isopropylbenzyl)-6-methyl-2,3-dihydro-1H-inden-4-yl)oxy)acetic acid] | 100 to 1000 | 10 to 100 | ++ (++3X<T3−SI≤30X) | –
4 | Cc1cc(OCC(=O)O)c2c(c1Cc1ccc(O)c(C(C)c3ccc(F)cc3)c1)CCC2 (centres unmarked) [Compound 8, 2-((7-(3-(1-(4-fluorophenyl)ethyl)-4-hydroxybenzyl)-6-methyl-2,3-dihydro-1H-inden-4-yl)oxy)acetic acid] | 10 to 100 | < 10 | ++ (++3X<T3−SI≤30X) | –
5 | Cc1cc(OCC(=O)O)c2c(c1Cc1ccc(O)c(C(C)C)c1F)CCC2 [Compound 10, 2-((7-(2-fluoro-4-hydroxy-3-isopropylbenzyl)-6-methyl-2,3-dihydro-1H-inden-4-yl)oxy)acetic acid] | 10 to 100 | < 10 | ++ (++3X<T3−SI≤30X) | –
6 | CNC(=O)COc1cc(C)c(Cc2ccc(O)c(C(C)C)c2F)c2c1CCC2 [Compound 11, 2-((7-(2-fluoro-4-hydroxy-3-isopropylbenzyl)-6-methyl-2,3-dihydro-1H-inden-4-yl)oxy)-N-methylacetamide] | – | – | – | A (A = ke is less than 2.0 and more than or equal to 0.05)
7 | CC(C)c1cc(Cc2ccc(OCC(=O)O)c3ccccc23)ccc1O [Compound 14, 2-((4-(4-hydroxy-3-isopropylbenzyl)naphthalen-1-yl)oxy)acetic acid] | > 1000 | 100 to 1000 | ++ (++3X<T3−SI≤30X) | –
8 | CC(C)c1cc(Cc2cc(F)c(OCC(=O)O)c3c2CCC3)ccc1O [Compound 16, 2-((5-fluoro-7-(4-hydroxy-3-isopropylbenzyl)-2,3-dihydro-1H-inden-4-yl)oxy)acetic acid] | > 1000 | > 1000 | ++ (++3X<T3−SI≤30X) | –
9 | CC(C)c1cc(Cc2cc(F)c(OCC(=O)O)cc2C(F)(F)F)ccc1O [Compound 18, 2-(2-fluoro-4-(4-hydroxy-3-isopropylbenzyl)-5-(trifluoromethyl)phenoxy)acetic acid] | > 1000 | > 1000 | + (+T3−SI≤3X) | –
10 | CC(C)c1c(O)ccc(Cc2ccc(OCC(=O)O)cc2Cl)c1F [Compound 20, 2-(3-chloro-4-(2-fluoro-4-hydroxy-3-isopropylbenzyl)phenoxy)acetic acid] | > 1000 | 100 to 1000 | ++ (++3X<T3−SI≤30X) | –
11 | C=C(C)c1cc(OCC(=O)O)ccc1Cc1ccc(O)c(C(C)C)c1F [Compound 23, 2-(4-(2-fluoro-4-hydroxy-3-isopropylbenzyl)-3-(prop-1-en-2-yl)phenoxy)acetic acid] | > 1000 | 100 to 1000 | ++ (++3X<T3−SI≤30X) | –
12 | CC(C)c1cc(OCC(=O)O)ccc1Cc1ccc(O)c(C(C)C)c1F [Compound 25, 2-(4-(2-fluoro-4-hydroxy-3-isopropylbenzyl)-3-isopropylphenoxy)acetic acid] | 100 to 1000 | 10 to 100 | ++ (++3X<T3−SI≤30X) | –
13 | CC(C)c1c(O)ccc(Cc2ccc(OCC(=O)O)c(F)c2Cl)c1F [Compound 27, 2-(3-chloro-2-fluoro-4-(2-fluoro-4-hydroxy-3-isopropylbenzyl)phenoxy)acetic acid] | > 1000 | > 1000 | – | –
14 | CC(C)c1c(O)ccc(Cc2cc(F)c(OCC(=O)O)cc2Cl)c1F [Compound 29, 2-(5-chloro-2-fluoro-4-(2-fluoro-4-hydroxy-3-isopropylbenzyl)phenoxy)acetic acid] | > 1000 | 100 to 1000 | +++ (+++T3−SI>30X) | –
15 | CC(C)c1c(O)ccc(Cc2ccc(OCC(=O)O)c(F)c2C(C)C)c1F [Compound 31, 2-(2-fluoro-4-(2-fluoro-4-hydroxy-3-isopropylbenzyl)-3-isopropylphenoxy)acetic acid] | > 1000 | > 1000 | ++ (++3X<T3−SI≤30X) | –
16 | CC(C)c1cc(Cc2cc(F)c(OCC(=O)O)cc2C(C)C)ccc1O [Compound 36, 2-(2-fluoro-4-(4-hydroxy-3-isopropylbenzyl)-5-isopropylphenoxy)acetic acid] | 100 to 1000 | 100 to 1000 | ++ (++3X<T3−SI≤30X) | –
17 | CC(C)c1cc(Cc2cc(F)c(OCC(=O)O)c(F)c2Cl)ccc1O [Compound 38, 2-(3-chloro-2,6-difluoro-4-(4-hydroxy-3-isopropylbenzyl)phenoxy)acetic acid] | – | > 1000 | – | –
18 | CNC(=O)COc1cc(Cl)c(Cc2ccc(O)c(C(C)C)c2F)cc1F [Compound 39, 2-(5-chloro-2-fluoro-4-(2-fluoro-4-hydroxy-3-isopropylbenzyl)phenoxy)-N-methylacetamide] | – | – | – | A (A = ke is less than 2.0 and more than or equal to 0.05)
19 | C=C(C)c1cc(OCC(=O)NC)ccc1Cc1ccc(O)c(C(C)C)c1F [Compound 41, 2-(4-(2-fluoro-4-hydroxy-3-isopropylbenzyl)-3-(prop-1-en-2-yl)phenoxy)-N-methylacetamide] | – | – | – | A (A = ke is less than 2.0 and more than or equal to 0.05)
